In ChEMBL document CHEMBL1136493, “Synthesis and anti-HIV properties of new water-soluble bis-functionalized[60]fullerene derivatives” (Bioorg Med Chem Lett, 2003):

Assays:
Conditions in all cases: Homo sapiens
CCRF-CEM [1] = test: Effective concentration required to inhibit HIV-induced (HIV-2) cytopathicity by 50% in CEM cell cultures; assay type: functional, cell-based
CCRF-CEM [2] = test: Cytostatic concentration required to inhibit CEM cell proliferation by 50%; assay type: functional
CCRF-CEM [3] = test: Effective concentration required to inhibit HIV-induced (HIV-1) cytopathicity by 50% in CEM cell cultures; assay type: functional, cell-based

Row | Structure (SMILES) | EC50 (CCRF-CEM [1]) | EC50 (CCRF-CEM [3]) | CC50 (CCRF-CEM [2])
1 | O=C(O)CN(CCOCCOCCN1CC23C4=c5c6c7c8c9c%10c%11c%12c%13c9c9c%14c%15c%16c%17c%18c%19c%20c%21c%22c%23c%24c(c-%11c(c2c%24c2c%11c%24c%25c(c5c5c6c(c8%14)c%15c6c%17c(c%25c56)c5c%18c%21c(c%232)c%245)C%113C1)C4C%107)C%12C%22C%201CN(CCOCCOCCN(CC(=O)O)CC(=O)O)CC%131C9C%19%16)CC(=O)O (stereo not given) | > 4 µM | 2.01 µM | –
2 | NCCOCCOCCN1CC23C4=c5c6c7c8c9c%10c%11c%12c%13c%14c%15c%16c%17c%18c%19c%20c%21c%22c(c2c%20c2c%20c%23c%24c(c5c7c5c9c7c%11c(c%12%16)c9c%17c(c%192)c%23c9c7c%245)C%203C1)C4C1C=6C2c3c1c-%22c(c-%14c3C%13C%10C82)C%211CN(CCOCCOCCN)CC%15%181 (stereo not given) | > 4 µM | > 4 µM | 7.4 µM
3 | NCCOCCOCCN1CC23C4=C5c6c7c8c9c(c%10c%11c%12c%13c%14c%15c%16c%17c%18c%19c%20c%21c%22c%23c(c6c6c%22c%22c%20c(c%15%19)c%13c(c%129)c%22c86)C5C5C6c8c9c(c-%17c%12c8C5C%23C%21C%12%18)C5c8c-9c(c2c-%10c8C%112CN(CCOCCOCCN)CC%142C%165)C46)C73C1 (stereo not given) | > 4 µM | > 4 µM | 9.6 µM
4 | O=C(O)CN(CCOCCOCCN1CC23C4=C5c6c7c8c9c(c%10c%11c%12c%13c%14c%15c%16c%17c%18c%19c%20c%21c%22c%23c(c6c6c%22c%22c%20c(c%15%19)c%13c(c%129)c%22c86)C5C5C6c8c9c(c-%17c%12c8C5C%23C%21C%12%18)C5c8c-9c(c2c-%10c8C%112CN(CCOCCOCCN(CC(=O)O)CC(=O)O)CC%142C%165)C46)C73C1)CC(=O)O (stereo not given) | > 4 µM | > 4 µM | –
5 | C[N+]1(CCOCCOCCN)CC23C4=c5c6c7c8c9c%10c%11c%12c%13c%14c%15c%16c%17c%18c%19c%20c%21c%22c(c2c%20c2c%20c%23c%24c(c5c7c5c9c7c%11c(c%12%16)c9c%17c(c%192)c%23c9c7c%245)C%203C1)C4C1C=6C2c3c1c-%22c(c-%14c3C%13C%10C82)C%211C[N+](C)(CCOCCOCCN)CC%15%181 (stereo not given) | > 4 µM | 2.6 µM | 13.2 µM
6 | COCCOCCOCCOC(=O)C1(C(=O)OCCOCCOCCOC)C23C4=C5c6c7c8c9c(c%10c%11c%12c%13c%14c%15c%16c%17c%18c%19c%20c%21c%22c%23c(c6c6c%22c%22c%20c(c%15%19)c%13c(c%129)c%22c86)C5C5C6c8c9c(c-%17c%12c8C5C%23C%21C%12%18)C5c8c-9c(c2c-%10c8C%112CN(CCOCCOCCN)CC%142C%165)C46)C713 (stereo not given) | > 4 µM | > 4 µM | –

Continued, in another order:

Row | EC50 (CCRF-CEM [1]) | EC50 (CCRF-CEM [3]) | Structure (SMILES) | CC50 (CCRF-CEM [2])
7 | > 4 µM | 0.96 µM | C[N+]1(CCOCCOCCN)CC23C4=c5c6c7c8c9c%10c%11c%12c%13c%14c%15c%16c%17c%18c%19c%20c%21c%22c%23c%24c(c2c%22c2c%22c%25c%26c(c5c(c6%10)c5c%11c6c%13c(c%14%18)c%10c%19c(c%212)c%25c%10c6c%265)C%223C1)C4C7C1=C%24C(=C%16C2(C[N+](C)(CCOCCOCCN)CC182)C%15C9%12)C%23C%17%20 (stereo not given) | 3.02 µM
8 | > 4 µM | > 4 µM | COCCOCCOCCOC(=O)C1(C(=O)OCCOCCOCCOC)C23C4=c5c6c7c8c9c%10c%11c%12c%13c9c9c%14c%15c%16c%17c%18c%19c%20c%21c%22c%23c%24c(c-%11c(c2c%24c2c%11c%24c%25c(c5c5c6c(c8%14)c%15c6c%17c(c%25c56)c5c%18c%21c(c%232)c%245)C%1113)C4C%107)C%12C%22C%201CN(CCOCCOCCN)CC%131C9C%19%16 (stereo not given) | –
9 | > 4 µM | 0.4 µM | C[N+]1(CCOCCOCCN)CC23C4=c5c6c7c8c9c%10c%11c%12c%13c9c9c%14c%15c%16c%17c%18c%19c%20c%21c%22c%23c%24c(c-%11c(c2c%24c2c%11c%24c%25c(c5c5c6c(c8%14)c%15c6c%17c(c%25c56)c5c%18c%21c(c%232)c%245)C%113C1)C4C%107)C%12C%22C%201C[N+](C)(CCOCCOCCN)CC%131C9C%19%16 (stereo not given) | 4.79 µM
10 | > 4 µM | > 4 µM | NCCOCCOCCN1CC23C4=c5c6c7c8c9c%10c%11c%12c%13c9c9c%14c%15c%16c%17c%18c%19c%20c%21c%22c%23c%24c(c-%11c(c2c%24c2c%11c%24c%25c(c5c5c6c(c8%14)c%15c6c%17c(c%25c56)c5c%18c%21c(c%232)c%245)C%113C1)C4C%107)C%12C%22C%201CN(CCOCCOCCN)CC%131C9C%19%16 (stereo not given) | 7.2 µM
11 | > 4 µM | > 4 µM | NCCOCCOCCN1CC23C4=c5c6c7c8c9c%10c%11c%12c%13c%14c%15c%16c%17c%18c%19c%20c%21c%22c%23c%24c(c2c%22c2c%22c%25c%26c(c5c(c6%10)c5c%11c6c%13c(c%14%18)c%10c%19c(c%212)c%25c%10c6c%265)C%223C1)C4C7C1=C%24C(=C%16C2(CN(CCOCCOCCN)CC182)C%15C9%12)C%23C%17%20 (stereo not given) | 7.63 µM
12 | > 4 µM | 1.6 µM | C[N+]1(CCOCCOCCN)CC23C4=C5c6c7c8c9c(c%10c%11c%12c%13c%14c%15c%16c%17c%18c%19c%20c%21c%22c%23c(c6c6c%22c%22c%20c(c%15%19)c%13c(c%129)c%22c86)C5C5C6c8c9c(c-%17c%12c8C5C%23C%21C%12%18)C5c8c-9c(c2c-%10c8C%112C[N+](C)(CCOCCOCCN)CC%142C%165)C46)C73C1 (stereo not given) | 6.59 µM
13 | > 4 µM | > 4 µM | C[N+]1(CCOCCOCCN)CC23C4=c5c6c7c8c9c%10c%11c%12c%13c%14c%15c%16c%17c%18c%19c%20c%21c%22c%23c%24c(c2c%22c2c%22c%25c%26c(c5c(c6%10)c5c%11c6c%13c(c%14%18)c%10c%19c(c%212)c%25c%10c6c%265)C%223C1)C4C7c1c-%24c(c-%16c(c1-8)C%15C9%12)C%23C%17%20 (stereo not given) | 44.3 µM
